According to ChEMBL document CHEMBL1201861, “Genomics of Drug Sensitity in Cancer screening data, Wellcome Trust Sanger Institute”:

Tests used:
Experiment in all cases: cells
COLO-792 = assay type: functional, cell-based, Homo sapiens; conditions: Homo sapiens, COLO-792
Description: SANGER: Inhibition of human COLO-792 cell growth in a cell viability assay.

COR-L23 = assay type: functional, cell-based, Homo sapiens; conditions: Homo sapiens, COR-L23;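 also: cell viability assay measuring how strongly compounds suppress growth of COR-L23 cells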
Description: SANGER: Inhibition of human COR-L23 cell growth in a cell viability assay.

Calu-6 = assay type: functional, cell-based, Homo sapiens; conditions: Homo sapiens, Calu-6;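 also: growth of human Calu-6 cells, read out by a cell viability assay, IC50 marking inhibition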
Description: SANGER: Inhibition of human Calu-6 cell growth in a cell viability assay.

DEL = assay type: functional, cell-based; conditions: Homo sapiens;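 also: growth inhibition of the human DEL cell line, read out with a cell viability assay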
Description: SANGER: Inhibition of human DEL cell growth in a cell viability assay.

DMS-79 = assay type: functional, cell-based; conditions: Homo sapiens;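 also: growth inhibition measured with a cell viability assay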
Description: SANGER: Inhibition of human DMS-79 cell growth in a cell viability assay.

ES6 = assay type: functional, cell-based, Homo sapiens; conditions: Homo sapiens, ES6;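 also: growth inhibition of human ES6 cells, read out with a cell viability assay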
Description: SANGER: Inhibition of human ES6 cell growth in a cell viability assay.

EW-11 = assay type: functional, cell-based, Homo sapiens; conditions: Homo sapiens, EW-11;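 also: growth inhibition of human EW-11 cells, measured with a cell viability assay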
Description: SANGER: Inhibition of human EW-11 cell growth in a cell viability assay.

HCC1937 = assay type: functional, cell-based, Homo sapiens; conditions: Homo sapiens, HCC1937;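 also: growth inhibition measured with a cell viability read-out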
Description: SANGER: Inhibition of human HCC1937 cell growth in a cell viability assay.

HD-MY-Z = assay type: functional, cell-based, Homo sapiens; conditions: Homo sapiens, HD-MY-Z;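 also: growth inhibition of HD-MY-Z cells, read out with a cell viability assay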
Description: SANGER: Inhibition of human HD-MY-Z cell growth in a cell viability assay.

HEL = assay type: functional, cell-based, Homo sapiens; conditions: Homo sapiens, HEL;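 also: growth inhibition of HEL cells, read out with a cell viability assay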
Description: SANGER: Inhibition of human HEL cell growth in a cell viability assay.

HMV-2 cell line = assay type: functional, cell-based, Homo sapiens; conditions: Homo sapiens, HMV-2;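 also: growth inhibition of HMV-II cells, read out with a cell viability assay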
Description: SANGER: Inhibition of human HMV-II cell growth in a cell viability assay.

Hs-578T = assay type: functional, cell-based, Homo sapiens; conditions: Homo sapiens, Hs-578T
Description: SANGER: Inhibition of human Hs-578-T cell growth in a cell viability assay.

HuO-3N1 = assay type: functional, cell-based, Homo sapiens; conditions: Homo sapiens, HuO-3N1;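 also: cell viability readout used to measure how strongly compounds suppress proliferation of human HuO-3N1 cells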
Description: SANGER: Inhibition of human HuO-3N1 cell growth in a cell viability assay.

K562 = assay type: functional, cell-based; conditions: Homo sapiens
Description: SANGER: Inhibition of human K-562 cell growth in a cell viability assay.

KARPAS-299 = assay type: functional, cell-based; conditions: Homo sapiens
Description: SANGER: Inhibition of human KARPAS-299 cell growth in a cell viability assay.

KP-N-YS = assay type: functional, cell-based; conditions: Homo sapiens;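 also: cell viability assay measuring inhibition of cell line growth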
Description: SANGER: Inhibition of human KP-N-YS cell growth in a cell viability assay.

LB2241-RCC = assay type: functional, cell-based, Homo sapiens; conditions: Homo sapiens, LB2241-RCC;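 also: cell viability assay measuring how strongly the cultured human renal carcinoma line is prevented from growing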
Description: SANGER: Inhibition of human LB2241-RCC cell growth in a cell viability assay.

LOX IMVI = assay type: functional, cell-based; conditions: Homo sapiens
Description: SANGER: Inhibition of human LOXIMVI cell growth in a cell viability assay.

LU-99A = assay type: functional, cell-based, Homo sapiens; conditions: Homo sapiens, LU-99A;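 also: growth inhibition of LU-99A cells, read out with a cell viability assay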
Description: SANGER: Inhibition of human LU-99A cell growth in a cell viability assay.

LXF-289 cell line = assay type: functional, cell-based, Homo sapiens; conditions: Homo sapiens, LXF-289
Description: SANGER: Inhibition of human LXF-289 cell growth in a cell viability assay.

MCF7 = assay type: functional, cell-based, Homo sapiens; conditions: Homo sapiens, MCF7;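 also: growth inhibition of human MCF7 cells, read out with a cell viability assay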
Description: SANGER: Inhibition of human MCF7 cell growth in a cell viability assay.

MG-63 = assay type: functional, cell-based, Homo sapiens; conditions: Homo sapiens, MG-63;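 also: growth inhibition of human MG-63 cells, read out with a cell viability assay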
Description: SANGER: Inhibition of human MG-63 cell growth in a cell viability assay.

ML-2 = assay type: functional, cell-based; conditions: Homo sapiens;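 also: growth inhibition of ML-2 cells, measured with a cell viability readout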
Description: SANGER: Inhibition of human ML-2 cell growth in a cell viability assay.

MMAC-SF = assay type: functional, cell-based, Homo sapiens; conditions: Homo sapiens, MMAC-SF;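 also: growth inhibition of human MMAC-SF cells, read out with a cell viability assay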
Description: SANGER: Inhibition of human MMAC-SF cell growth in a cell viability assay.

NCI-H1155 = assay type: functional, cell-based; conditions: Homo sapiens;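 also: cell growth inhibition measured by a viability assay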
Description: SANGER: Inhibition of human NCI-H1155 cell growth in a cell viability assay.

NCI-H1355 = assay type: functional, cell-based, Homo sapiens; conditions: Homo sapiens, NCI-H1355;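 also: growth inhibition of human NCI-H1355 cells, read out by a cell viability assay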
Description: SANGER: Inhibition of human NCI-H1355 cell growth in a cell viability assay.

NCI-H1650 = assay type: functional, cell-based, Homo sapiens; conditions: Homo sapiens, NCI-H1650;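 also: growth inhibition of human NCI-H1650 cells measured by a cell viability assay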
Description: SANGER: Inhibition of human NCI-H1650 cell growth in a cell viability assay.

NCI-H28 = assay type: functional, cell-based, Homo sapiens; conditions: Homo sapiens, NCI-H28;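 also: growth inhibition of human NCI-H28 cells, read out as cell viability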
Description: SANGER: Inhibition of human NCI-H28 cell growth in a cell viability assay.

OCUB-M = assay type: functional, cell-based, Homo sapiens; conditions: Homo sapiens, OCUB-M;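 also: growth inhibition of the cancer cell line, read out through a cell viability assay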
Description: SANGER: Inhibition of human OCUB-M cell growth in a cell viability assay.

OE19 = assay type: functional, cell-based, Homo sapiens; conditions: Homo sapiens, OE19;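 also: growth inhibition of OE19 cells, measured through a cell viability read-out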
Description: SANGER: Inhibition of human OE19 cell growth in a cell viability assay.

OVCAR-5 = assay type: functional, cell-based, Homo sapiens; conditions: Homo sapiens, OVCAR-5;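 also: growth inhibition of human OVCAR-5 cells, read out with a cell viability assay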
Description: SANGER: Inhibition of human OVCAR-5 cell growth in a cell viability assay.

PC-14 = assay type: functional, cell-based, Homo sapiens; conditions: Homo sapiens, PC-14;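 also: cell viability assay measuring inhibition of PC-14 cell growth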
Description: SANGER: Inhibition of human PC-14 cell growth in a cell viability assay.

PC-3 = assay type: functional, cell-based, Homo sapiens; conditions: Homo sapiens, PC-3;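 also: cell viability assay measuring growth inhibition of PC-3 cells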
Description: SANGER: Inhibition of human PC-3 cell growth in a cell viability assay.

RD = assay type: functional, cell-based, Homo sapiens; conditions: Homo sapiens, RD
Description: SANGER: Inhibition of human RD cell growth in a cell viability assay.

RXF 393 = assay type: functional, cell-based; conditions: Homo sapiens;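 also: growth inhibition of human RXF 393 cells, read out with a cell viability assay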
S-117 = assay type: functional, cell-based, Homo sapiens; conditions: Homo sapiens, S-117
Description: SANGER: Inhibition of human S-117 cell growth in a cell viability assay.

SCC-9 = assay type: functional, cell-based, Homo sapiens; conditions: Homo sapiens, SCC-9;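 also: Read-out is a cell viability assay, with values giving inhibition of cell growth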
Description: SANGER: Inhibition of human SCC-9 cell growth in a cell viability assay.

SNU-C2B = assay type: functional, cell-based, Homo sapiens; conditions: Homo sapiens, SNU-C2B;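 also: cell viability readout used to measure compound-driven suppression of SNU-C2B cell proliferation, IC50 marking half-maximal growth inhibition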
Description: SANGER: Inhibition of human SNU-C2B cell growth in a cell viability assay.

SW1463 = assay type: functional, cell-based, Homo sapiens; conditions: Homo sapiens, SW1463;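 also: growth inhibition of SW1463 cells, determined with a cell viability assay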
Description: SANGER: Inhibition of human SW1463 cell growth in a cell viability assay.

SW48 = assay type: functional, cell-based, Homo sapiens; conditions: Homo sapiens, SW48;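 also: growth inhibition of SW48 cells, read out with a cell viability assay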
Description: SANGER: Inhibition of human SW48 cell growth in a cell viability assay.

SW780 = assay type: functional, cell-based, Homo sapiens; conditions: Homo sapiens, SW780;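 also: growth inhibition of the cells, read out with a cell viability assay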
TE-1 = assay type: functional, cell-based, Homo sapiens; conditions: Homo sapiens, TE-1;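 also: growth inhibition of the human TE-1 cell line, read out with a cell viability assay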
Description: SANGER: Inhibition of human TE-1 cell growth in a cell viability assay.

647-V = assay type: functional, cell-based, Homo sapiens; conditions: Homo sapiens, 647-V;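 also: growth inhibition of 647-V cells, read out with a cell viability assay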
Description: SANGER: Inhibition of human 647-V cell growth in a cell viability assay.

697 = assay type: functional, cell-based; conditions: Homo sapiens
Description: SANGER: Inhibition of human 697 cell growth in a cell viability assay.

A2058 = assay type: functional, cell-based; conditions: Homo sapiens;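 also: reduction of A2058 cell growth, read out with a viability assay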
Description: SANGER: Inhibition of human A2058 cell growth in a cell viability assay.

A4-Fuk = assay type: functional, cell-based; conditions: Homo sapiens;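 also: growth inhibition of A4-Fuk cells, read out by a cell viability assay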
Description: SANGER: Inhibition of human A4-Fuk cell growth in a cell viability assay.

BHY = assay type: functional, cell-based, Homo sapiens; conditions: Homo sapiens, BHY;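 also: cell growth inhibition read out by a viability assay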
Description: SANGER: Inhibition of human BHY cell growth in a cell viability assay.

Becker = assay type: functional, cell-based, Homo sapiens; conditions: Homo sapiens, Becker;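 also: growth inhibition of Becker cells, read out with a cell viability assay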
Description: SANGER: Inhibition of human Becker cell growth in a cell viability assay.

CAL-27 = assay type: functional, cell-based, Homo sapiens; conditions: Homo sapiens, CAL-27;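 also: Viability-based readout, IC50 reflecting inhibition of CAL-27 cell growth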
Description: SANGER: Inhibition of human CAL-27 cell growth in a cell viability assay.

UACC-62 = assay type: functional, cell-based, Homo sapiens; conditions: Homo sapiens, UACC-62;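 also: growth inhibition of human UACC-62 cells, read out by a cell viability assay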
Description: SANGER: Inhibition of human UACC-62 cell growth in a cell viability assay.

COLO-668 = assay type: functional, cell-based, Homo sapiens; conditions: Homo sapiens, COLO-668
Description: SANGER: Inhibition of human COLO-668 cell growth in a cell viability assay.

COLO-678 = assay type: functional, cell-based, Homo sapiens; conditions: Homo sapiens, COLO-678
Description: SANGER: Inhibition of human COLO-678 cell growth in a cell viability assay.

`CN(C)C/C=C/C(=O)Nc1cc2c(Nc3ccc(F)c(Cl)c3)ncnc2cc1O[C@H]1CCOC1` [AFATINIB] showed an IC50 (COLO-792) greater than 500 nM, an IC50 (COR-L23) greater than 500 nM and an IC50 (Calu-6) greater than 500 nM. For the same compound, the IC50 (DEL) was greater than 500 nM, the IC50 (DMS-79) was greater than 500 nM and the IC50 (ES6) was greater than 500 nM. For the same compound, the IC50 (EW-11) was greater than 500 nM, the IC50 (HCC1937) was greater than 500 nM and the IC50 (HD-MY-Z) was greater than 500 nM. For the same compound, the IC50 (HEL) was greater than 500 nM, the IC50 (HMV-2 cell line) was greater than 500 nM and the IC50 (Hs-578T) was greater than 500 nM. The IC50 (HuO-3N1) was greater than 500 nM, the IC50 (K562) was greater than 500 nM and the IC50 (KARPAS-299) was greater than 500 nM. It also gave an IC50 (KP-N-YS) greater than 500 nM, an IC50 (LB2241-RCC) of 109 nM and an IC50 (LOX IMVI) greater than 500 nM. For the same compound, the IC50 (LU-99A) was greater than 500 nM, the IC50 (LXF-289 cell line) was greater than 500 nM and the IC50 (MCF7) was greater than 500 nM. For the same compound, the IC50 (MG-63) was greater than 500 nM, the IC50 (ML-2) was 248 nM and the IC50 (MMAC-SF) was greater than 500 nM. The IC50 (NCI-H1155) was greater than 500 nM, the IC50 (NCI-H1355) was greater than 500 nM and the IC50 (NCI-H1650) was greater than 500 nM. It also gave an IC50 (NCI-H28) greater than 500 nM, an IC50 (OCUB-M) greater than 500 nM and an IC50 (OE19) greater than 500 nM. For the same compound, the IC50 (OVCAR-5) was greater than 500 nM, the IC50 (PC-14) was 56.7 nM and the IC50 (PC-3) was greater than 500 nM. The IC50 (RD) was greater than 500 nM, the IC50 (RXF 393) was greater than 500 nM and the IC50 (S-117) was greater than 500 nM. The IC50 (SCC-9) was greater than 500 nM, the IC50 (SNU-C2B) was greater than 500 nM and the IC50 (SW1463) was greater than 500 nM. The IC50 (SW48) was greater than 500 nM, the IC50 (SW780) was greater than 500 nM and the IC50 (TE-1) was greater than 500 nM. For the same compound, the IC50 (647-V) was greater than 500 nM, the IC50 697 was greater than 500 nM and the IC50 (A2058) was greater than 500 nM. The IC50 (A4-Fuk) was greater than 500 nM, the IC50 (BHY) was 287 nM and the IC50 (Becker) was greater than 500 nM. The IC50 (CAL-27) was 176 nM, the IC50 (UACC-62) was greater than 500 nM and the IC50 (COLO-668) was greater than 500 nM. It also gave an IC50 (COLO-678) greater than 500 nM.
In the case of `CN(c1ncccc1CNc1nc(Nc2ccc3c(c2)CC(=O)N3)ncc1C(F)(F)F)S(C)(=O)=O` [PF-00562271], the IC50 (COLO-792) is reported as greater than 2560 nM, the IC50 (COR-L23) is reported as greater than 2560 nM and the IC50 (Calu-6) is reported as greater than 2560 nM. The IC50 (DEL) was greater than 2560 nM, the IC50 (DMS-79) was greater than 2560 nM and the IC50 (ES6) was greater than 2560 nM. It also gave an IC50 (EW-11) greater than 2560 nM, an IC50 (HCC1937) greater than 2560 nM and an IC50 (HD-MY-Z) greater than 2560 nM. The IC50 (HEL) was greater than 2560 nM, the IC50 (HMV-2 cell line) was greater than 2560 nM and the IC50 (Hs-578T) was greater than 2560 nM. For the same compound, the IC50 (HuO-3N1) was greater than 2560 nM, the IC50 (K562) was greater than 2560 nM and the IC50 (KARPAS-299) was greater than 2560 nM. The IC50 (KP-N-YS) was greater than 2560 nM, the IC50 (LB2241-RCC) was greater than 2560 nM and the IC50 (LOX IMVI) was greater than 2560 nM. The IC50 (LU-99A) was greater than 2560 nM, the IC50 (LXF-289 cell line) was greater than 2560 nM and the IC50 (MCF7) was greater than 2560 nM. The IC50 (MG-63) was 806 nM, the IC50 (ML-2) was 1670 nM and the IC50 (MMAC-SF) was greater than 2560 nM. For the same compound, the IC50 (NCI-H1155) was greater than 2560 nM, the IC50 (NCI-H1355) was greater than 2560 nM and the IC50 (NCI-H1650) was greater than 2560 nM. It also gave an IC50 (NCI-H28) greater than 2560 nM, an IC50 (OCUB-M) greater than 2560 nM and an IC50 (OE19) greater than 2560 nM. It also gave an IC50 (OVCAR-5) greater than 2560 nM, an IC50 (PC-14) greater than 2560 nM and an IC50 (PC-3) greater than 2560 nM. For the same compound, the IC50 (RD) was greater than 2560 nM, the IC50 (RXF 393) was greater than 2560 nM and the IC50 (S-117) was greater than 2560 nM. The IC50 (SCC-9) was greater than 2560 nM, the IC50 (SNU-C2B) was greater than 2560 nM and the IC50 (SW1463) was greater than 2560 nM. For the same compound, the IC50 (SW48) was greater than 2560 nM, the IC50 (SW780) was greater than 2560 nM and the IC50 (TE-1) was greater than 2560 nM. For the same compound, the IC50 (647-V) was greater than 2560 nM, the IC50 697 was greater than 2560 nM and the IC50 (A2058) was greater than 2560 nM. The IC50 (A4-Fuk) was greater than 2560 nM, the IC50 (BHY) was 1660 nM and the IC50 (Becker) was greater than 2560 nM. The IC50 (CAL-27) was greater than 2560 nM, the IC50 (UACC-62) was greater than 2560 nM and the IC50 (COLO-668) was greater than 2560 nM. The IC50 (COLO-678) was greater than 2560 nM.
